For 28 molecules, EC50 results are on record in patent publication US9969726B2, “Metabotropic glutamate receptor negative allosteric modulators (NAMS) and uses thereof” (Sanford-Burnham Medical Research Institute, priority 2014, dated 2018).

Where two headings read alike, the source gives them in different places.

One experiment has as its target rat mGlu2 receptor (Rattus norvegicus (Rat), UniProt P31421). The experiment is described as follows: mGlu2 in vitro GIRK thallium flux assay. It counts as cell-based. The note with it: NAM, EC80 glutamate, HEK-293 GIRK cells. The procedure, abridged:
(§1)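 Cells expressing rat mGlu2 or mGlu3 with GIRK, plated overnight at 37 °C. Test compounds (0.3% DMSO, 10-point 1:3 series) preincubated 2.5 or 60 min, then thallium buffer plus EC80 glutamate added. Fluorescence slope 5–15 s after addition, normalised to vehicle and maximal agonist, fitted by four-parameter logistic.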

For another experiment, the target named is rat mGlu3 receptor (Rattus norvegicus (Rat), UniProt P31422). Put plainly: mGlu3 in vitro GIRK thallium flux assay. It counts as cell-based. The note with it: NAM; 2.5 min compound incubation; EC80 glutamate; HEK-293 GIRK cells. Summed up: as §1
The mark [1] stands for this setting: 2.5 min compound incubation, read-out: mGlu2 EC50 (μM) (2.5 min).
Where [2] appears, read: mGlu2 EC50 (μM) (60 min), 60 min compound incubation.
Setting [3] is: read-out: mGlu2 EC50 (μM) (60 min), 60 min compound incubation.

Sequence of rat mGlu3 receptor (P31422 23-879): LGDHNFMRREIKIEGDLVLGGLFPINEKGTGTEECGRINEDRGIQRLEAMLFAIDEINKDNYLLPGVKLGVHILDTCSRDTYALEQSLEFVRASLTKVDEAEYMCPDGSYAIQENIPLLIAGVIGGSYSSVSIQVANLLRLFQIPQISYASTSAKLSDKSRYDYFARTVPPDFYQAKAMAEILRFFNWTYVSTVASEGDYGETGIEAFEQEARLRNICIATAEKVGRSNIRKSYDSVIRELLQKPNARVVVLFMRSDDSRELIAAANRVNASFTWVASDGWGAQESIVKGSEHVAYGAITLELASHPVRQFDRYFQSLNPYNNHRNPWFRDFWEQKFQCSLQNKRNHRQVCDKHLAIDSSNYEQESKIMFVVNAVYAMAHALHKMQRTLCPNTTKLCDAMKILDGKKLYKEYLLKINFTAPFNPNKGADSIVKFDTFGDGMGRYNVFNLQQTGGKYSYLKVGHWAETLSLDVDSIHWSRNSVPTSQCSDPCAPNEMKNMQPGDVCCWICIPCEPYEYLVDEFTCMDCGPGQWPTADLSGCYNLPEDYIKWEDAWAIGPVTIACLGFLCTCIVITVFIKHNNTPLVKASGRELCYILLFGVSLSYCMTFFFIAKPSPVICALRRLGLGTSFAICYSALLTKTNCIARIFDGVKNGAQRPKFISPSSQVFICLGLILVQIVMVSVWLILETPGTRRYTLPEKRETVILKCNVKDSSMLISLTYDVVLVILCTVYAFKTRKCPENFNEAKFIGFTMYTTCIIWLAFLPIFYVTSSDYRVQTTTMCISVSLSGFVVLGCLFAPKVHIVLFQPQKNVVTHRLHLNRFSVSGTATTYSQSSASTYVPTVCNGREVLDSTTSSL
Sequence of rat mGlu2 receptor (P31421 19-872): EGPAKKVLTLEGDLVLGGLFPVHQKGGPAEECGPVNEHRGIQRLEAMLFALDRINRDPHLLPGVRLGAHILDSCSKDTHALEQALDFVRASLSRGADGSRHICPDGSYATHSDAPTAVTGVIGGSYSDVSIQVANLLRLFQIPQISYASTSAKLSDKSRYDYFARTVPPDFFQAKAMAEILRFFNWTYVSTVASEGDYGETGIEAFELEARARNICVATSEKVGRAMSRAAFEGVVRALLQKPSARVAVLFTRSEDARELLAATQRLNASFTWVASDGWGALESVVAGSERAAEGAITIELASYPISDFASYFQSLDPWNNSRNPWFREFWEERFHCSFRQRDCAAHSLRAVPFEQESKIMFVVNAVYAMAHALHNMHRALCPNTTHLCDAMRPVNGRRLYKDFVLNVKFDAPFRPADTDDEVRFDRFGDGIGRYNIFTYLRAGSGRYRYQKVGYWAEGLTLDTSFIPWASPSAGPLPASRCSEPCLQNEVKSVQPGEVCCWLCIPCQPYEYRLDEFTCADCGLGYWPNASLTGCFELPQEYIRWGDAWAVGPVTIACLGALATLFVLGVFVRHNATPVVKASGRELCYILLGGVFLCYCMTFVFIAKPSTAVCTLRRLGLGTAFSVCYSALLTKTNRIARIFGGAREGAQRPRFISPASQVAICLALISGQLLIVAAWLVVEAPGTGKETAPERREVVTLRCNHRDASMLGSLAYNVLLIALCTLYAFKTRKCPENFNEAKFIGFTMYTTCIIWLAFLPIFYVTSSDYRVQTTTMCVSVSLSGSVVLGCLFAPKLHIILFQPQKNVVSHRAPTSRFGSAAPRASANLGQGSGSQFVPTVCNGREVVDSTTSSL

Take `O=C(O)c1cc(-c2cccc(-c3nsc(-c4ccoc4)n3)c2)ccc1F` [Example 42, 4-Fluoro-3′-(5-(furan-3-yl)-1,2,4-thiadiazol-3-yl)biphenyl-3-carboxylic Acid]: the EC50 (usually the concentration that produces a half-maximal response) at rat mGlu2 receptor (setting [1]) is 3.63 µM; at rat mGlu2 receptor (setting [2]), 3.71 µM; at rat mGlu3 receptor, above 10 µM.
Consider `O=C1CC(c2ccnc(-c3ccccc3F)c2)=Nc2ccc(C(F)(F)F)cc2N1` [Example 200, 4-(2-(2-Fluorophenyl)pyridin-4-yl)-8-(trifluoromethyl)-1,3-dihydro-2H-benzo[b][1,4]diazepin-2-one], for which the EC50 on rat mGlu2 receptor (setting [1]) was above 10 µM; at rat mGlu2 receptor (setting [3]), 0.22 µM; at rat mGlu3 receptor, 0.75 µM.
With `O=C(O)c1cccc(-c2cccc(-c3nc(-c4ccccc4)n(-c4cccc(F)c4)n3)c2)c1` [Example 56, 3′-(1-(3-Fluorophenyl)-5-phenyl-1H-1,2,4-triazol-3-yl)-[1,1′-biphenyl]-3-carboxylic Acid], the EC50 on rat mGlu2 receptor (setting [1]) is 3.22 µM; at rat mGlu2 receptor (setting [2]) it was above 10 µM; at rat mGlu3 receptor, above 10 µM.
Turning to `O=C(O)c1cc(-c2ccc(-c3nc(-c4ccc(C(F)(F)F)nc4)cc(C(F)(F)F)n3)cc2)ccc1Cl` [Example 83, 4-Chloro-4′-(4-(trifluoromethyl)-6-(6-(trifluoromethyl)pyridin-3-yl)pyrimidin-2-yl)biphenyl-3-carboxylic Acid], the results for the EC50 on rat mGlu2 receptor (setting [1]), at rat mGlu2 receptor (setting [3]) and at rat mGlu3 receptor were 2.95 µM, 1.23 µM and above 10 µM, respectively.
In the same order, the values of `O=C(O)c1cc(-c2cccc(-c3nc(-c4cccnc4)cc(C(F)(F)F)n3)c2)ccc1F` [Example 116, 4-Fluoro-3′-(4-(pyridin-3-yl)-6-(trifluoromethyl)pyrimidin-2-yl)biphenyl-3-carboxylic Acid] are 2.11 µM, 0.27 µM and 8.58 µM.
With `N#Cc1cc(C2=Nc3ccc(C#Cc4ccc(F)cc4)cc3NC(=O)C2)ccn1` [Example 185, 4-(8-((4-Fluorophenyl)ethynyl)-2-oxo-2,3-dihydro-1H-benzo[b][1,4]diazepin-4-yl)picolinonitrile], the EC50 on rat mGlu2 receptor (setting [1]) was above 10 µM; at rat mGlu3 receptor, 1.45 µM.
With `O=C(O)c1ccc(F)c(-c2cccc(-c3csc(-c4ccccc4)n3)c2)c1` [Example 11, 6-Fluoro-3′-(2-phenylthiazol-4-yl)biphenyl-3-carboxylic Acid], the EC50 at rat mGlu2 receptor (setting [1]) is 1.59 µM; at rat mGlu2 receptor (setting [2]), 3.4 µM; on rat mGlu3 receptor, above 30 µM.
`O=C1CC(c2ccnc(Cl)c2)=Nc2ccc(-c3ccc(Cl)cc3)cc2N1` [Example 186, 8-(4-Chlorophenyl)-4-(2-chloropyridin-4-yl)-1,3-dihydro-2H-benzo[b][1,4]diazepin-2-one]: the EC50 on rat mGlu2 receptor (setting [1]) was found to be 2.42 µM; at rat mGlu2 receptor (setting [3]), 1.01 µM; on rat mGlu3 receptor, 1.36 µM.
Consider `O=C(O)c1cccc(-c2cccc(-c3nc(-c4ccoc4)cc(C(F)(F)F)n3)c2)c1` [Example 115, 3′-(4-(Furan-3-yl)-6-(trifluoromethyl)pyrimidin-2-yl)biphenyl-3-carboxylic acid], for which the EC50 on rat mGlu2 receptor (setting [1]) worked out at 0.28 µM; on rat mGlu2 receptor (setting [3]), 0.12 µM; on rat mGlu3 receptor, 0.96 µM.
In the same order, the values of `Cc1cc(-c2ccoc2)nc(-c2cccc(-c3cccc(C(=O)O)c3)c2)n1` [Example 119, 3′-(4-(Furan-3-yl)-6-methylpyrimidin-2-yl)biphenyl-3-carboxylic Acid] are 0.05 µM, 0.06 µM and 0.35 µM.
In the same order, the values of `O=C(O)c1ccc(-c2cccc(-c3nc(-c4ccc(C(F)(F)F)nc4)cc(C(F)(F)F)n3)c2)s1` [Example 80, 5-(3-(4-(Trifluoromethyl)-6-(6-(trifluoromethyl)pyridin-3-yl)pyrimidin-2-yl)phenyl)thiophene-2-carboxylic Acid] are 0.78 µM, 0.13 µM and 2.4 µM.
Turning to `COc1ccc(C(=O)O)cc1-c1cccc(-c2csc(-c3ccccc3)n2)c1` [Example 23, 6-Methoxy-3′-(2-phenylthiazol-4-yl)biphenyl-3-carboxylic Acid], the EC50 is 1.81 µM at rat mGlu2 receptor (setting [1]), 1.35 µM at rat mGlu2 receptor (setting [2]) and above 10 µM on rat mGlu3 receptor.
Consider `O=C1CC(c2ccnc(-c3ccccc3)c2)=Nc2ccc(C(F)(F)F)cc2N1` [Example 198, 4-(2-Phenylpyridin-4-yl)-8-(trifluoromethyl)-1,3-dihydro-2H-benzo[b][1,4]diazepin-2-one], for which the results for the EC50 on rat mGlu2 receptor (setting [1]), at rat mGlu2 receptor (setting [3]) and on rat mGlu3 receptor were above 10 µM, 0.26 µM and 0.46 µM, respectively.
Take `O=C(O)c1cccc(-c2cccc(-c3csc(-c4ccc5ccccc5c4)n3)c2)c1` [Example 32, 3-[3-(2-(2-Naphthyl)-1,3-thiazol-4-yl)phenyl]benzoic acid]: the EC50 on rat mGlu2 receptor (setting [1]) was above 10 µM; on rat mGlu2 receptor (setting [2]), 4.98 µM; at rat mGlu3 receptor it was above 30 µM.
For the molecule `O=C(O)c1cc(-c2cccc(-c3nc(-c4ccco4)cc(C(F)(F)F)n3)c2)ccc1F` [Example 88, 4-Fluoro-3′-(4-(furan-2-yl)-6-(trifluoromethyl)pyrimidin-2-yl)biphenyl-3-carboxylic Acid], the EC50 at rat mGlu2 receptor (setting [1]) turned out to be 0.68 µM; on rat mGlu2 receptor (setting [3]), 0.34 µM; on rat mGlu3 receptor, 1.13 µM.
On to `O=C(O)c1cc(-c2cccc(-c3cnc(-c4ccccc4)s3)c2)ccc1F` [Example 3, 4-Fluoro-3′-(2-phenylthiazol-5-yl)biphenyl-3-carboxylic Acid], for which the EC50 at rat mGlu2 receptor (setting [1]) was above 30 µM; on rat mGlu2 receptor (setting [3]), above 10 µM; on rat mGlu3 receptor it was above 10 µM.
On to `O=C(O)c1cc(-c2cccc(-c3nc(-c4ccc(Cl)cc4F)cc(C(F)(F)F)n3)c2)ccc1F` [Example 110, 3′-(4-(4-Chloro-2-fluorophenyl)-6-(trifluoromethyl)pyrimidin-2-yl)-4-fluorobiphenyl-3-carboxylic Acid], for which the EC50 was 4.08 µM on rat mGlu2 receptor (setting [1]), 0.65 µM at rat mGlu2 receptor (setting [3]) and 5.34 µM at rat mGlu3 receptor.
As for `O=C(O)c1cccc(-c2cccc(-c3csc(-c4ccccc4)n3)c2)c1` [Example 28, 3′-(2-Phenylthiazol-4-yl)biphenyl-3-carboxylic Acid], the EC50 on rat mGlu2 receptor (setting [2]) is 0.2 µM; at rat mGlu3 receptor it was above 10 µM.
`O=C(O)c1cc(-c2cccc(-c3csc(-c4cc5ccccc5o4)n3)c2)ccc1F` [Example 16, 3′-(2-(Benzofuran-2-yl)thiazol-4-yl)-4-fluorobiphenyl-3-carboxylic Acid]: the EC50 at rat mGlu2 receptor (setting [1]) amounted to 2.57 µM; on rat mGlu2 receptor (setting [2]), 1.93 µM; on rat mGlu3 receptor, 3.32 µM.
As for `O=C(O)c1ccc(-c2ccc(-c3nc(-c4ccc(C(F)(F)F)nc4)cc(C(F)(F)F)n3)cc2)cc1` [Example 81, 4′-(4-(Trifluoromethyl)-6-(6-(trifluoromethyl)pyridin-3-yl)pyrimidin-2-yl)biphenyl-4-carboxylic Acid], the values for the EC50 at rat mGlu2 receptor (setting [1]), at rat mGlu2 receptor (setting [3]) and at rat mGlu3 receptor were 3.78 µM, 0.44 µM and 2.13 µM, respectively.
For `FC(F)(F)c1ccc(-c2cc(C(F)(F)F)nc(-c3cccc(-c4cccc(-c5nn[nH]n5)c4)c3)n2)cn1` [Example 123, 2-(3′-(2H-Tetrazol-5-yl)biphenyl-3-yl)-4-(trifluoromethyl)-6-(6-(trifluoromethyl)pyridin-3-yl)pyrimidine] the same measures were 0.75 µM, 0.43 µM and 2.39 µM.
Consider `O=C(O)c1ccc(-c2cccc(-c3csc(-c4ccccc4)n3)c2)cc1Cl` [Example 21, 3-Chloro-3′-(2-phenylthiazol-4-yl)biphenyl-4-carboxylic Acid], for which the EC50 at rat mGlu2 receptor (setting [1]), at rat mGlu2 receptor (setting [2]) and at rat mGlu3 receptor was above 10 µM throughout.
Regarding `Cc1cccc(-c2ccc3c(c2)NC(=O)CC(c2ccnc(Cl)c2)=N3)c1` [Example 193, 4-(2-Chloropyridin-4-yl)-8-(m-tolyl)-1,3-dihydro-2H-benzo[b][1,4]diazepin-2-one], the values for the EC50 on rat mGlu2 receptor (setting [1]), at rat mGlu2 receptor (setting [3]) and at rat mGlu3 receptor were above 10 µM, 0.95 µM and above 10 µM, respectively.
In the case of `Cc1cc2c(cc1C(F)(F)F)NC(=O)CC(c1cccc(OCc3ccccc3)c1)=N2` [Example 144, 4-(3-(Benzyloxy)phenyl)-7-methyl-8-(trifluoromethyl)-1H-benzo[b][1,4]diazepin-2(3H)-one], the EC50 at rat mGlu2 receptor (setting [1]) is above 10 µM; on rat mGlu2 receptor (setting [2]), 2.36 µM; on rat mGlu3 receptor, 2.93 µM.
In the same order, the values of `Cc1cc(-c2cccc(C3CC(=O)Nc4cc(C(F)(F)F)c(C)cc4N3)c2)cc(C)n1` (racemic) [Example 156, 4-(3-(2,6-Dimethylpyridin-4-yl)phenyl)-7-methyl-8-(trifluoromethyl)-4,5-dihydro-1H-benzo[b][1,4]diazepin-2(3H)-one] are above 10 µM, 3.7 µM and above 10 µM.
In the case of `Cc1cccc(-c2cc(C(F)(F)F)nc(-c3cccc(-c4ccc(F)c(C(=O)O)c4)c3)n2)c1` [Example 92, 4-Fluoro-3′-(4-m-tolyl-6-(trifluoromethyl)pyrimidin-2-yl)biphenyl-3-carboxylic Acid], the EC50 was found to be 2.79 µM on rat mGlu2 receptor (setting [1]), 0.4 µM at rat mGlu2 receptor (setting [3]) and 3.37 µM on rat mGlu3 receptor.
Regarding `O=C(O)c1cc(-c2cccc(-c3csc(-c4ccccc4)c3)c2)ccc1F` [Example 45, 4-Fluoro-3′-(5-phenylthiophen-3-yl)-[1,1′-biphenyl]-3-carboxylic Acid], the EC50 at rat mGlu2 receptor (setting [1]), at rat mGlu2 receptor (setting [2]) and on rat mGlu3 receptor was above 10 µM in each case.
With `ON=Cc1cc(-c2cccc(-c3csc(-c4ccccc4)n3)c2)ccc1F` [Example 20, 4-Fluoro-3′-(2-phenylthiazol-4-yl)biphenyl-3-carbaldehyde oxime], the results for the EC50 on rat mGlu2 receptor (setting [1]), at rat mGlu2 receptor (setting [2]) and on rat mGlu3 receptor were above 30 µM, above 10 µM and above 30 µM, respectively.
